Drawing on ChEMBL document CHEMBL1130635, “4-Phenyl-4-oxo-butanoic acid derivatives inhibitors of kynurenine 3-hydroxylase” (Bioorg Med Chem Lett, 1998), this text covers IC50 and inhibition for 15 compounds.

SMILES strings stand for the structures.

For data set [1], the target named is T1, Kynurenine 3-monooxygenase (Rattus norvegicus, UniProt O88867). The data set can be described thus: Inhibition of rat brain KYN 3-OHase.
In data set [2] the target is T1, Kynurenine 3-monooxygenase. The data set can be described thus: Inhibition of rat liver KYN 3-OHase.
The target of data set [3] is Kynurenine 3-monooxygenase (Rattus norvegicus) (UniProt O88867). Description: Inhibition of rat liver KYN 3-OHase at 100 uM concentration.
Chain of Kynurenine 3-monooxygenase (Rattus norvegicus) (O88867 whole entry, looked up): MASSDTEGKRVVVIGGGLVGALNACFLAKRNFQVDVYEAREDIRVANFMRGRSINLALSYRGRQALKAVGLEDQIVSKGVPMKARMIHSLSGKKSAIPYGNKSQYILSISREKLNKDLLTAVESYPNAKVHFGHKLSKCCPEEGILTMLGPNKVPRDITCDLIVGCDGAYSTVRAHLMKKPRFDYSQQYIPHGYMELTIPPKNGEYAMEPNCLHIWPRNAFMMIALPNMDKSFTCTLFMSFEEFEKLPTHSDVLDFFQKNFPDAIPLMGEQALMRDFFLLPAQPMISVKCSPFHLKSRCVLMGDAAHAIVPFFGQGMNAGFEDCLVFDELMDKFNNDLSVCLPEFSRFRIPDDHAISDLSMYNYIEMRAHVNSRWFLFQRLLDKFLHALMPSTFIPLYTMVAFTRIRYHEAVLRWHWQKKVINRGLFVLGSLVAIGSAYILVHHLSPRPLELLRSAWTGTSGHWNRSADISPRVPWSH
Data set [4] addresses T2, Kynureninase (Rattus norvegicus) (UniProt P70712).
T2 sequence (whole entry): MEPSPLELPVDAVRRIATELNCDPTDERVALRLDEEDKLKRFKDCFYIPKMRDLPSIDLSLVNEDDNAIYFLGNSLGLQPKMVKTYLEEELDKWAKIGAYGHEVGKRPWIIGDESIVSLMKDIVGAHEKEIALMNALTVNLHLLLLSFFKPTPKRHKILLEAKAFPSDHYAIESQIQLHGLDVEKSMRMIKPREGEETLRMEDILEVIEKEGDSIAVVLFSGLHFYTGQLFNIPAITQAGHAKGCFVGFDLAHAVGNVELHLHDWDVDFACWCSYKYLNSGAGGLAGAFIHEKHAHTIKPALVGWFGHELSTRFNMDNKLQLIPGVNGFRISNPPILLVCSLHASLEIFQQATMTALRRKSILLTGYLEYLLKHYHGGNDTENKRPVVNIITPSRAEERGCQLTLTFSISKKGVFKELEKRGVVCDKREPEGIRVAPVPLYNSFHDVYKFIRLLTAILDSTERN
The data set can be described thus: Compound was evaluated for inhibition of rat liver KYN ase at 100 uM concentration.

The target in data set [5] is Kynurenine/alpha-aminoadipate aminotransferase, mitochondrial (Rattus norvegicus) (UniProt Q64602). The data set can be described thus: Compound was evaluated for inhibition of rat liver KAT at 100 uM concentration.
Chain of Kynurenine/alpha-aminoadipate aminotransferase, mitochondrial (Rattus norvegicus) (Q64602 30-425 limits assumed): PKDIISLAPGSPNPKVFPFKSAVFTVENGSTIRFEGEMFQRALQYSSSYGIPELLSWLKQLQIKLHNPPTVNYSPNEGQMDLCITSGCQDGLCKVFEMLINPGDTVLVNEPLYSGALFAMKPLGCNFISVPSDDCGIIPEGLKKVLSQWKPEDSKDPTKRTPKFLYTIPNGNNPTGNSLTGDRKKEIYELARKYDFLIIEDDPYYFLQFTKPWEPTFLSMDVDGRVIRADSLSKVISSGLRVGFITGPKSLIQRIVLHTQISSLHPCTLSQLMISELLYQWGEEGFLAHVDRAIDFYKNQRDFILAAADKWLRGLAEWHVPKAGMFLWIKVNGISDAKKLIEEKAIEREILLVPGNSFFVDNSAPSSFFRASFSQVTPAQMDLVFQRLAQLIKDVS
The test system of data set [6] is Pseudomonas fluorescens. Description: Compound was evaluated for inhibition of PHBH at 100 uM concentration.
Data set [7] has as its target T3, FMO (Mus musculus, UniProt Q64133+Q8BW75).
T3 sequence (Q8BW75 whole entry): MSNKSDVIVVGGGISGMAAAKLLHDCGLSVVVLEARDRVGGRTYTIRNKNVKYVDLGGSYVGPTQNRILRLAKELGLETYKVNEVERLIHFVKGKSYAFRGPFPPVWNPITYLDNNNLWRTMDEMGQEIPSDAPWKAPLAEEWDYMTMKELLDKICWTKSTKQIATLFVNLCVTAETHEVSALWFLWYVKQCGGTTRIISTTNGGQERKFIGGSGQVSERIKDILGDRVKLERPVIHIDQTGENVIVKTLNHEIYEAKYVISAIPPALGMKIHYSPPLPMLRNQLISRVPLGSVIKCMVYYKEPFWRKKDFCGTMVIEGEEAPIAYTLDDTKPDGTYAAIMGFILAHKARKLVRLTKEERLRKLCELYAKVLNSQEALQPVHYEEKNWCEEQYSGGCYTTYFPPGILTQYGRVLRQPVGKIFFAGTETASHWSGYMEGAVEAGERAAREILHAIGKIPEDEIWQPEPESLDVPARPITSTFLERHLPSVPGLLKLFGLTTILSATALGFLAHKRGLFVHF
T3 sequence (Q64133 whole entry): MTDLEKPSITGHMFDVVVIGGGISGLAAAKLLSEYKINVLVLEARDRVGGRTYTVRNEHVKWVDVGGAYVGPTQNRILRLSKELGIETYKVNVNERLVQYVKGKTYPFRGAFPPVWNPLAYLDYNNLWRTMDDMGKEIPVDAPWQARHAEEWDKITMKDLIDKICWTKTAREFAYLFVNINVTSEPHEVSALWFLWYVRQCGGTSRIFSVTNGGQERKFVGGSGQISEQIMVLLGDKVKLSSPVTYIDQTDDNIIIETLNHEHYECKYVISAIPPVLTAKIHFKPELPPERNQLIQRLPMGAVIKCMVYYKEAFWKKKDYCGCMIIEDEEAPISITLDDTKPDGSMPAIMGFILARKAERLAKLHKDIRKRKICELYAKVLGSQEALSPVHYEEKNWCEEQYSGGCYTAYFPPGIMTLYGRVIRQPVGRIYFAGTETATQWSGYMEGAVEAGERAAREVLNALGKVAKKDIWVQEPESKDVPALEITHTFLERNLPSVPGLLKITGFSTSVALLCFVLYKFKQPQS
Description: Compound was evaluated for inhibition of FMO at 100 uM concentration. The class given is protein assay.

The target of data set [8] is Kynurenine/alpha-aminoadipate aminotransferase, mitochondrial (Rattus norvegicus) (UniProt Q64602). Description: Compound was evaluated for inhibition of rat liver KAT at 100 uM concentration.
Data set [9] has as its target T3, FMO. The data set can be described thus: Compound was evaluated for inhibition of FMO. at 100 uM. Format: protein assay.
The target of data set [10] is T2, Kynureninase (Rattus norvegicus). Description: Compound was evaluated for inhibition of rat liver KYN ase at 100 uM.
Data set [11] deals with Kynurenine/alpha-aminoadipate aminotransferase, mitochondrial (Rattus norvegicus) (UniProt Q64602). Description: Compound was evaluated for inhibition of rat liver KAT at 100 uM.
Data set [12] has as its target T1, Kynurenine 3-monooxygenase. Description: Compound was evaluated for the inhibition of rat liver KYN 3-OHase.
In data set [13] the test system is Pseudomonas fluorescens. The data set can be described thus: Compound was evaluated for inhibition of PHBH. at 100 uM.

T1 sequence (O88867 whole entry): as the sequence (O88867 whole entry, looked up) above

As usually defined, the IC50 is the concentration needed to halve the response being measured. Read a low IC50 as higher potency. `O=C(CC(O)C(=O)O)c1cccc(Cl)c1` (centres undefined): the IC50 in [1] came out at 480 nM; in data set [2], 1100 nM. By inhibition is commonly meant the percentage by which the read-out fell short of the control. Higher therefore signals a strong effect. As to `CC(O)(CC(=O)c1ccc(Cl)c(Cl)c1)C(=O)O` (centres undefined), in [3], the inhibition came out at 43%. Turning to `O=C(CC(C(=O)O)c1ccccc1)c1ccc(Cl)c(Cl)c1` (centres undefined), half-maximal inhibition in [2] (IC50) was put at 19500 nM. `CC(N)(CC(=O)c1ccc(Cl)c(Cl)c1)C(=O)O` (centres undefined) showed an inhibition in data set [3] of 35%. Consider `O=C(O)C(=O)/C=C(\O)c1ccc(Cl)c(Cl)c1`, for which the IC50 was 950 nM in data set [1] and 6400 nM in data set [2]. Consider `O=C(CC(Cl)C(=O)O)c1ccc(Cl)c(Cl)c1` (centres undefined), for which the IC50 in [1] was 2200 nM; in data set [2], 14800 nM.

As to `O=C(CC(O)C(=O)O)c1ccc(Cl)c(Cl)c1` (centres undefined), the inhibition in [4] turned out to be 0%; in data set [5], 23%; in [6] it was 29%.

In [3], `CC(C)(CC(=O)c1ccc(Cl)c(Cl)c1)C(=O)O` gave an inhibition of 21%. Take `COc1ccc(C(=O)CC(O)C(=O)O)cc1` (centres undefined): the inhibition in [3] stood at 7%. As to `O=C(CC(Cc1ccccc1)C(=O)O)c1ccc(Cl)c(Cl)c1` (centres undefined), the inhibition at 100 µM in [7] worked out at 16%. Moreover, the inhibition stood at 0% in data set [4], 8% in data set [8] and 8% in [6]. As for `C/C(=C\C(=O)c1ccc(Cl)c(Cl)c1)C(=O)O`, the IC50 in data set [1] is 2200 nM; in data set [2], 11300 nM. `O=C(CC1(C(=O)O)CC1)c1ccc(Cl)c(Cl)c1` displayed an inhibition in data set [3] of 20%. As to `O=C(O)C(=O)/C=C(\O)c1ccc(F)c(F)c1`, the results for the IC50 in data set [1] and in data set [2] were 440 nM and 1200 nM, respectively. As for `NC(CC(=O)c1ccc(Cl)c(Cl)c1)C(=O)O` (centres undefined), in [9], the inhibition at 100 µM was 8.5%. The values for the inhibition in [10], in data set [11] and in data set [13] were 10%, 14% and 2%, respectively. In [12], this compound returned an IC50 of 330 nM. In turn, `NCCC(=O)c1ccc(Cl)c(Cl)c1` had an inhibition in data set [3] of 2%.
